Measured values published in patent US20210161130A1, “COMPOSITIONS FOR ATTRACTING PESTS AND USES THEREOF” (DOMOBIOS, priority 2018, published 2021).

Legend:
Type in all cases: in vivo
[1] = tested on: Tyrophagus putrescentiae; experiment: Two-choice bioassay (filter paper rectangles), attraction of mites
Description: (§1) A composition comprising menthone was prepared by diluting liquid menthone with a density of 0.894 (mixture of stereoisomers L-menthone and D-isomenthone, with 98% purity, from Alfa Aesar, Haverhill, USA) in water to obtain a concentration of 0.1 μl/mL (i.e., 10^−4 L/L), corresponding to a concentration of about 0.0894 mg/mL or a concentration of about 0.00894% (w/v). Said composition has a molar concentration of menthone of about 0.58 mM.
(§2) Compositions comprising menthone at different concentrations were prepared by serial dilutions in water of the composition comprising menthone at 10^−4 L/L (from 10^−4 L/L to 10^−8 L/L, i.e., from about 0.0894 mg/mL to about 8.94 ng/mL) and their capacity to attract acarids was tested.
(§3) A composition comprising peppermint oil (also known as essential oil of Mentha piperita), which itself comprises menthone, was prepared by diluting peppermint oil with a density of 0.898 g/mL (natural peppermint oil from Mentha piperita L., Sigma, St Louis, USA) in water to obtain a concentration of 0.1 μl/mL (i.e., 10^−4 L/L), corresponding to a concentration of about 0.0898 mg/mL or a concentration of about 0.00898% (w/v). Compositions comprising peppermint oil at different concentrations were prepared by serial dilutions in water of the composition comprising peppermint oil at 10^−4 L/L (from 10^−4 L/L to 10^−6 L/L, i.e., from about 0.0898 mg/mL to about 0.898 μg/mL) and their capacity to attract acarids was tested.
The experimental protocol was inspired by the quantitative choice bioassay run by Synder et al., in 1993. Said bioassay consisted of two rectangles of filter paper of equal dimensions, positioned so as to be parallel to each other and less than 2 cm apart in a petri dish with a 6 cm diameter. 10 μL microliters of the composition comprising menthone, either alone (i.e., isolated) or within peppermint oil, were loaded on one rectangle and 10 μL of solvent (i.e., water) were loaded on the other as a control. After the solvent evaporated, a small strip of filter paper was used to bridge the rectangles. A group of 30-40 mites was then transferred to the middle of the bridge and their movements were observed. The rectangle for which they exited the bridge was recorded. Each assay comprised two sets of rectangles of filter paper connected with a bridge, with the composition comprising menthone, either alone (i.e., isolated) or within peppermint oil, loaded on opposing rectangles in each set (e.g., rectangle on the left in the first set, and rectangle on the right in the second set). Data were submitted to Fisher analysis.
(§4) Statistical significance was assessed using a Fisher's exact test.

[2] = tested on: Dermatophagoides farinae; experiment: Simulated use test, infested cushion covered with sprayed sheet; settings: menthone 10^−6 L/L, 6 sprays on sheet, 1 h, cushion infested with three mite species, N = 3
Description: (§5) A composition comprising menthone at a concentration of 10^−6 L/L was prepared by diluting 1 μL liquid menthone as described hereinabove (mixture of stereoisomers L-menthone and D-isomenthone, with 98% purity, from Alfa Aesar, Haverhill, USA) in 1 L of water. Hereafter, said composition is referred to as “compositions comprising menthone alone” or “compositions comprising menthone”.
(§6) A composition comprising peppermint oil at a concentration of 10^−5 L/L was prepared by diluting 10 μL peppermint oil (natural peppermint oil from Mentha piperita L., Sigma, St Louis, USA) as described hereinabove in 1 L of water. Hereafter, said composition is referred to as “composition comprising menthone within peppermint oil” or “composition comprising peppermint oil”.
(§7) In order to simulate real-life utilization of the composition for attracting pests of the invention, a common household furniture such as a cushion was infested with living mites and treated with a composition comprising menthone at a concentration of 10^−6 L/L (corresponding to a concentration of menthone of about 9×10^−4 mg/mL) or with a composition comprising peppermint oil at a concentration of 10^−5 L/L (corresponding to a concentration of peppermint oil of about 9×10^−3 mg/mL). As described in Japanese application JP2000336007 and in U.S. Pat. No. 6,415,545, the treatment consisted in laying a sheet on the infested household furniture and spraying the compositions to be tested over it. The number of attracted and unattracted mites was then counted to evaluate the efficacy of the tested composition. All the tests were run at 20-25° C. and 30-35% relative humidity, conditions normally found in households.
(§8) Brand new cushions (43×30×6 cm, Tom&Co) were infested with 400 Tyrophagus putrescentiae, 100 Dermatophagoides farinae and 100 Dermatophagoides pteronyssinus. The proportion of each species respected the average composition of natural mite populations that can be found in a pet basket: ⅔ of storage mites, ⅓ of house dust mites. Small pieces of dry dog food were spread over the cushions as a nourishment for mites. After the infestation, mites were allowed to settle down for 15 hours.
(§9) After 15 hours, a dark sheet was placed over the cushion to be treated. The size of the sheet was sufficient to cover the entire upper surface of the cushion (43×30 cm). The sheet was sprayed 6 times (total volume sprayed about 4 ml) with a composition comprising menthone, either alone (i.e., isolated) or within peppermint oil, or with water (control), keeping the bottle at a distance of about 30 cm from the sheet to be sprayed. A dry control was also used, corresponding to an untreated sheet, i.e., a sheet that was not sprayed. Sprays were evenly distributed in order to cover the totality of the sheet. The sheet was left in place for 1 h. 3 replicates were run with the composition comprising menthone, either alone (i.e., isolated) or within peppermint oil, and 3 replicates were run with the control.
(§10) In order to determine the number of mites within an infested place, the usual method is to vacuum the infested place (Wassenaar 1988). Each sheet was vacuumed for 2 minutes using a special filter (as described in the European patent application EP0630478) that retains the collected dust. The dust sample was then analyzed (see Step 4) in order to determine the number of mites attracted by the composition comprising menthone, either alone (i.e., isolated) or within peppermint oil. Similarly, after removal of the sheet, each cushion was vacuumed to determine the number of remaining mites (i.e., the number of mites that were not attracted by the composition comprising menthone, either alone (i.e., isolated) or within peppermint oil). The relative proportion of mites into the sheet and into the cushion determined the efficacy of the treatment (see Step 4). […]

[3] = tested on: Tyrophagus putrescentiae; experiment: as above; settings: menthone 10^−6 L/L, 6 sprays on sheet, 1 h, cushion infested with three mite species, N = 3
Description: as §5, §6, §7, §8, §9, §10

[4] = tested on: Dermatophagoides pteronyssinus; experiment: as above; settings: menthone 10^−6 L/L, 6 sprays on sheet, 1 h, cushion infested with three mite species, N = 3
Description: as §5, §6, §7, §8, §9, §10

[5] = tested on: Total number of mites; experiment: as above
Description: as §5, §6, §7, §8, §9, §10

[6] = tested on: Dermatophagoides farinae; experiment: Two-choice bioassay (vegetable fiber support discs), attraction of mites
Description: as §1, §2, §3
(§11) Responses of Dermatophagoides spp. to compositions comprising menthone, either alone (i.e., isolated) or within peppermint oil, were tested in a two-choice bioassay as described in Otieno et al., 1985. Said bioassay comprised two support discs made of vegetable fiber (with a diameter of 1.7 cm), i.e., a test support and a control support, placed in a Petri dish (with a diameter of 6 cm) kept at 20-28° C. in the dark at 30% humidity. Compositions comprising menthone, either alone (i.e., isolated) or within peppermint oil, (50 μL or less) were applied via a syringe to the test support. The control support was loaded with water only. An appropriate number of mites were placed in the center of the dish, equidistant from the test support and the control support. The bioassay system was then left for 24 hr or less at 20-28° C. in the dark at 30% humidity before a count of the mites assembled on the test support and on the control support was made. Several replicates were run for each test.
as §4

[7] = tested on: Dermatophagoides pteronyssinus; experiment: as above
Description: as §1, §2, §3, §11, §4

[8] = composition comprising menthone 10^−4 L/L in water vs water
[9] = composition comprising menthone 10^−5 L/L in water vs water
[10] = composition comprising menthone 10^−6 L/L in water vs water
[11] = composition comprising menthone 10^−7 L/L in water vs water
[12] = composition comprising menthone 10^−8 L/L in water vs water

Molecule `CC1CCC(C(C)C)C(=O)C1` (stereo not shown) [menthone] has a Mean efficiency [1, 8] of 50%, a Mean efficiency [1, 9] of 47% and a Mean efficiency [1, 10] of 57%. The Mean efficiency [1, 11] was 53%, the Mean efficiency [1, 12] was 49% and the “Efficacy (mites attracted out of the cushion)” value (shortened to “Efficacy”) [2] was 47%. The “Efficacy” value ([2]; listed as Menthone) was 47% (±6%), the “Efficacy” value [3] was 69% and the “Efficacy” value ([3]; listed as Menthone) was 69% (±8%). For the same molecule, the “Efficacy” value [4] was 44%, the “Efficacy” value ([4]; listed as Menthone) was 44% and the “more mites attracted out of the infested cushion compared to the control” value ([5]; menthone 10^−6 L/L vs water control, Fisher's exact test, p-value=0.0006) was 21%. The “Efficacy” value ([5]; menthone 10^−6 L/L, 6 sprays on sheet, 1 h, cushion infested with three mite species, N = 3) was 54% (±5%), the Mean efficiency [6, 8] was 41% and the Mean efficiency [6, 9] was 40%. The Mean efficiency [6, 10] was 62%, the Mean efficiency [6, 11] was 49% and the Mean efficiency [6, 12] was 51%. The Mean efficiency [7, 8] was 42%, the Mean efficiency [7, 9] was 50% and the Mean efficiency [7, 10] was 67%. For the same molecule, the Mean efficiency [7, 11] was 42%.
